PubChem BioAssay (NCI)
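Tested at 5 concentrations; 48 h exposure; 96-well plates; endpoints linearly interpolated, else capped at highest concentration. The concentration for 50% growth inhibition is given as GI50. The concentration for full growth arrest is given as TGI.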

Columns and labels:
Assay in all cases: growth of human tumour cells (NCI), 48 h
[1] = test system: NCI-H522 lung
[2] = test system: MOLT-4 leukemia
[3] = test system: SF-295 CNS
[4] = test system: M14 melanoma
[5] = test system: CCRF-CEM leukemia
[6] = test system: UO-31 renal
[7] = test system: ACHN renal
[8] = test system: SNB-19 CNS
[9] = test system: OVCAR-5 ovarian
[10] = test system: HT29 colon
[11] = test system: IGROV1 ovarian
[12] = test system: A549 NSCLC
[13] = test system: EKVX NSCLC
[14] = test system: A498 renal
[15] = test system: HL-60(TB) leukemia
[16] = test system: SF-268 CNS
[17] = test system: SK-MEL-5 melanoma
[18] = test system: SK-MEL-28 melanoma
[19] = test system: MDA-MB-435
[20] = test system: COLO 205 colon
[21] = test system: OVCAR-8 ovarian
[22] = test system: K-562 leukemia
[23] = test system: U251 CNS
[24] = test system: NCI/ADR-RES ovarian
[25] = test system: 786-0 renal
[26] = test system: NCI-H226 lung
[27] = test system: NCI-H460 lung
[28] = test system: HCT-116 colon
[29] = test system: BT-549 breast
[30] = test system: MCF7 breast
[31] = test system: HOP-62 NSCLC
[32] = test system: OVCAR-3 ovarian
[33] = test system: SN12C renal
[34] = test system: HOP-92 NSCLC
[35] = test system: SK-MEL-2 melanoma
[36] = test system: LOX IMVI melanoma
[37] = test system: RXF 393 renal
[38] = test system: RPMI-8226 leukemia
[39] = test system: DU-145 prostate
[40] = test system: CAKI-1 renal
[41] = test system: SR leukemia
[42] = test system: SK-OV-3 ovarian
[43] = test system: MDA-MB-231 breast
[44] = test system: HCC-2998 colon
[45] = test system: SW-620 colon
[46] = test system: T-47D breast
[47] = test system: MALME-3M melanoma
[48] = test system: OVCAR-4 ovarian
[49] = test system: UACC-257 melanoma
[50] = test system: NCI-H23 lung
[51] = test system: TK-10 renal
[52] = test system: PC-3 prostate
[53] = test system: UACC-62 melanoma
[54] = test system: KM12 colon
[55] = test system: HS 578T breast
[56] = test system: HCT-15 colon

Q: `N#CC1=C(N)Oc2c(ccc3ccccc23)C1c1cc2ccccc2n2nnnc12` (configuration not stated) was tested. Which GI50 [1] did it give?
A: Its GI50 is 0.407 µM.

Q: And the TGI [1]?
A: Its TGI is 2.9 µM.

Q: And the GI50 [2]?
A: The GI50 was 0.557 µM.

Q: What about the TGI [2] of the same compound?
A: The TGI was over 100 µM.

Q: What about the GI50 [3] of the same compound?
A: Its GI50 is 0.832 µM.

Q: And the TGI [3]?
A: The TGI was over 100 µM.

Q: What about the GI50 [4] of the same compound?
A: Its GI50 is 0.948 µM.

Q: What about the TGI [4] of the same compound?
A: The TGI was over 100 µM.

Q: And the GI50 [5]?
A: Its GI50 is 0.739 µM.

Q: What about the TGI [5] of the same compound?
A: Its TGI is over 100 µM.

Q: What about the GI50 [6] of the same compound?
A: The GI50 was 0.725 µM.

Q: And the TGI [6]?
A: Its TGI is over 100 µM.

Q: What about the GI50 [7] of the same compound?
A: Its GI50 is 1.71 µM.

Q: What about the TGI [7] of the same compound?
A: Its TGI is over 100 µM.

Q: What about the GI50 [8] of the same compound?
A: Its GI50 is 0.702 µM.

Q: What about the TGI [8] of the same compound?
A: The TGI was over 100 µM.

Q: What about the GI50 [9] of the same compound?
A: The GI50 was 2.76 µM.

Q: What about the TGI [9] of the same compound?
A: Its TGI is over 100 µM.

Q: And the GI50 [10]?
A: The GI50 was 3 µM.

Q: What about the TGI [10] of the same compound?
A: Its TGI is over 100 µM.

Q: What about the GI50 [11] of the same compound?
A: The GI50 was 0.82 µM.

Q: And the TGI [11]?
A: Its TGI is over 100 µM.

Q: And the GI50 [12]?
A: Its GI50 is 3.02 µM.

Q: What about the TGI [12] of the same compound?
A: The TGI was over 100 µM.

Q: And the GI50 [13]?
A: The GI50 was 5.8 µM.

Q: What about the TGI [13] of the same compound?
A: The TGI was over 100 µM.

Q: What about the GI50 [14] of the same compound?
A: Its GI50 is 0.783 µM.

Q: What about the TGI [14] of the same compound?
A: The TGI was over 100 µM.

Q: And the GI50 [15]?
A: The GI50 was 0.26 µM.

Q: What about the TGI [15] of the same compound?
A: The TGI was 16.7 µM.

Q: What about the GI50 [16] of the same compound?
A: The GI50 was 3.23 µM.

Q: What about the TGI [16] of the same compound?
A: Its TGI is over 100 µM.

Q: What about the GI50 [17] of the same compound?
A: Its GI50 is 0.611 µM.

Q: And the TGI [17]?
A: Its TGI is over 100 µM.

Q: And the GI50 [18]?
A: Its GI50 is 4.04 µM.

Q: And the TGI [18]?
A: Its TGI is over 100 µM.

Q: And the GI50 [19]?
A: Its GI50 is 0.3 µM.

Q: What about the TGI [19] of the same compound?
A: The TGI was 1.01 µM.

Q: What about the GI50 [20] of the same compound?
A: Its GI50 is 2.69 µM.

Q: And the TGI [20]?
A: The TGI was 7.32 µM.

Q: And the GI50 [21]?
A: Its GI50 is 2.85 µM.

Q: What about the TGI [21] of the same compound?
A: Its TGI is over 100 µM.

Q: What about the GI50 [22] of the same compound?
A: The GI50 was 0.365 µM.

Q: And the TGI [22]?
A: The TGI was over 100 µM.

Q: And the GI50 [23]?
A: The GI50 was 0.748 µM.

Q: What about the TGI [23] of the same compound?
A: Its TGI is over 100 µM.

Q: And the GI50 [24]?
A: The GI50 was 0.534 µM.

Q: And the TGI [24]?
A: The TGI was 46.6 µM.

Q: And the GI50 [25]?
A: The GI50 was 1.28 µM.

Q: What about the TGI [25] of the same compound?
A: The TGI was over 100 µM.

Q: And the GI50 [26]?
A: The GI50 was 3.08 µM.

Q: And the TGI [26]?
A: Its TGI is over 100 µM.

Q: What about the GI50 [27] of the same compound?
A: The GI50 was 0.496 µM.

Q: And the TGI [27]?
A: Its TGI is over 100 µM.

Q: And the GI50 [28]?
A: Its GI50 is 0.685 µM.

Q: And the TGI [28]?
A: Its TGI is over 100 µM.

Q: And the GI50 [29]?
A: Its GI50 is 1.61 µM.

Q: And the TGI [29]?
A: The TGI was over 100 µM.

Q: What about the GI50 [30] of the same compound?
A: Its GI50 is 0.471 µM.

Q: What about the TGI [30] of the same compound?
A: The TGI was over 100 µM.

Q: And the GI50 [31]?
A: The GI50 was 0.812 µM.

Q: And the TGI [31]?
A: Its TGI is over 100 µM.

Q: And the GI50 [32]?
A: The GI50 was 0.44 µM.

Q: What about the TGI [32] of the same compound?
A: The TGI was 3.36 µM.

Q: And the GI50 [33]?
A: The GI50 was 0.99 µM.

Q: And the TGI [33]?
A: The TGI was over 100 µM.

Q: And the GI50 [34]?
A: Its GI50 is 0.49 µM.

Q: And the TGI [34]?
A: Its TGI is 7.47 µM.

Q: And the GI50 [35]?
A: Its GI50 is 0.616 µM.

Q: And the TGI [35]?
A: The TGI was 6.84 µM.

Q: And the GI50 [36]?
A: The GI50 was 0.966 µM.

Q: What about the TGI [36] of the same compound?
A: Its TGI is over 100 µM.

Q: And the GI50 [37]?
A: The GI50 was 1.4 µM.

Q: And the TGI [37]?
A: Its TGI is 6.59 µM.

Q: And the GI50 [38]?
A: The GI50 was 0.927 µM.

Q: And the TGI [38]?
A: Its TGI is over 100 µM.

Q: And the GI50 [39]?
A: Its GI50 is 2.77 µM.

Q: What about the TGI [39] of the same compound?
A: The TGI was over 100 µM.

Q: What about the GI50 [40] of the same compound?
A: The GI50 was 5.74 µM.

Q: What about the TGI [40] of the same compound?
A: Its TGI is over 100 µM.

Q: What about the GI50 [41] of the same compound?
A: The GI50 was 0.232 µM.

Q: What about the TGI [41] of the same compound?
A: Its TGI is over 100 µM.

Q: What about the GI50 [42] of the same compound?
A: The GI50 was 2.05 µM.

Q: And the TGI [42]?
A: The TGI was over 100 µM.

Q: And the GI50 [43]?
A: The GI50 was 0.976 µM.

Q: What about the TGI [43] of the same compound?
A: Its TGI is over 100 µM.

Q: What about the GI50 [44] of the same compound?
A: Its GI50 is 2.36 µM.

Q: What about the TGI [44] of the same compound?
A: Its TGI is over 100 µM.

Q: And the GI50 [45]?
A: Its GI50 is 0.467 µM.

Q: What about the TGI [45] of the same compound?
A: Its TGI is over 100 µM.

Q: And the GI50 [46]?
A: The GI50 was 1.83 µM.

Q: What about the TGI [46] of the same compound?
A: Its TGI is over 100 µM.

Q: And the GI50 [47]?
A: The GI50 was 0.852 µM.

Q: And the TGI [47]?
A: The TGI was over 100 µM.

Q: What about the GI50 [48] of the same compound?
A: Its GI50 is 18.7 µM.

Q: And the TGI [48]?
A: The TGI was over 100 µM.

Q: What about the GI50 [49] of the same compound?
A: Its GI50 is 9.09 µM.

Q: And the TGI [49]?
A: Its TGI is over 100 µM.

Q: What about the GI50 [50] of the same compound?
A: Its GI50 is 3.45 µM.

Q: What about the TGI [50] of the same compound?
A: The TGI was over 100 µM.

Q: And the GI50 [51]?
A: Its GI50 is 4.8 µM.

Q: What about the TGI [51] of the same compound?
A: The TGI was over 100 µM.

Q: What about the GI50 [52] of the same compound?
A: The GI50 was 0.546 µM.

Q: What about the TGI [52] of the same compound?
A: Its TGI is over 100 µM.

Q: What about the GI50 [53] of the same compound?
A: Its GI50 is 0.451 µM.

Q: What about the TGI [53] of the same compound?
A: Its TGI is over 100 µM.

Q: And the GI50 [54]?
A: Its GI50 is 0.628 µM.

Q: And the TGI [54]?
A: Its TGI is over 100 µM.

Q: And the GI50 [55]?
A: Its GI50 is 1.51 µM.

Q: What about the TGI [55] of the same compound?
A: The TGI was 49.3 µM.

Q: And the GI50 [56]?
A: Its GI50 is 0.524 µM.

Q: What about the TGI [56] of the same compound?
A: The TGI was over 100 µM.
